≈ marks a conversion by molar mass, not a printed value.
Legend:
[1] = Cmax in Nocardia brasiliensis HUJEG-1 infected BALB/c mouse at 25 mg/kg, sc every 8 hrs by HPLC; assay type: ADME, organism-based; set-up: dose 25 mg/kg, route subcutaneous; conditions: in vivo
Nocardia brasiliensis = experiment: Antimicrobial activity against Nocardia brasiliensis HUJEG-1 by broth microdilution method; assay type: functional
[2] = Drug level in human plasma at 400 mg/day after 8 hrs; assay type: ADME, cell-free; conditions: read-out: Drug uptake

Row | Structure (SMILES) | Cmax [1] | MIC (Nocardia brasiliensis) | concentration at 8 h [2]
1 | O=C(O)c1cn(C2CC2)c2cc(N3CCNCC3)c(F)cc2c1=O [CIPROFLOXACIN] | 2250 ng/mL |  | 
2 | COc1c(N2C[C@@H]3CCCN[C@@H]3C2)c(F)cc2c(=O)c(C(=O)O)cn(C3CC3)c12 [MOXIFLOXACIN] | 4300 ng/mL | 0.25 µg/mL (≈ 0.623 µM) | > 1000 ng/mL

Reference: ChEMBL document CHEMBL1629568 (Antimicrob Agents Chemother, 2009)
